Reference: a melting point compilation (Tetko et al.; mined from patent text by program, amines drawn as free bases though some values may be those of a salt)

Row | Compound | melting point
1 | CC(=O)OCC12CCC(=O)C=C1CCC1C2CCC2(C)C(O)CCC12 (centres undefined) | 125 to 127 °C
2 | O=C(c1ccc(O)cc1)c1ccc(OCCBr)cc1 | 136 to 138 °C
3 | C[Si](C)(C)CCCCCCCNC(=O)n1cc(F)c(=O)[nH]c1=O | 118 to 119 °C
4 | CN1C(=O)[C@H](NC(=O)CCc2ccc(Cl)cc2Cl)N=C(c2ccccc2)c2ccccc21 | 92 to 95 °C
5 | N#Cc1ccc(N(Cc2ccc(Br)cc2)n2cnnc2)cc1-c1ccc(OS(N)(=O)=O)cc1 | 122 to 123 °C
6 | N#CCC(CC#N)c1cccc(Cl)c1Cl | 76 to 78 °C
7 | CSc1nnc(-c2ccc3occ(-c4cccc(OC(F)(F)F)c4)c3c2)o1 | 113 to 114 °C
8 | CN1C2=C(CSC2)C(=O)Nc2cccnc21 | 240 to 241 °C
9 | O=C1c2ccccc2C(=O)N1C1CCCn2c1nc(-c1ccncc1)cc2=O (racemic) | 211 to 213 °C
10 | CC(C)(C)OC(=O)NC1CCCC(NC(=O)c2ccc(-c3[nH]nc4c3C(=O)c3c(NC(=O)NN5CCOCC5)cccc3-4)s2)C1 (centres undefined) | > 300 °C
11 | Clc1nc(N2CCOCC2)c2ncnc(Cl)c2n1 | 179 to 181 °C
12 | CN(Cc1ccccc1)c1cc(Oc2cccc(C(F)(F)F)c2)nc(C(=O)Nc2ccccc2)c1 | 111 to 114 °C
13 | Cc1ccc(C(C#N)=C2CCCCC2)cc1 | 50.5 to 51.3 °C
14 | CN1C(=O)CN(C(=O)CNC(=O)OCc2ccccc2)C(c2ccccc2)c2cc(Cl)ccc21 (centres undefined) | 158 to 160 °C
15 | Cc1ccc(S(=O)(=O)NC(=O)C(C)(NC=O)C(C)C)cc1 (centres undefined) | 131 to 135 °C
16 | CC(C)(C(=O)O)c1cn2nc(Cl)ccc2n1 | 159 to 161 °C
17 | O=C(NC(Cc1ccncc1)C(=O)O)OCc1cc2cc(-c3cccnc3)ccc2o1 (centres undefined) | 257 °C
18 | COc1cc(C)cc2c(=O)oc3c(c12)C(=O)c1cccc(O)c1C3=O | 282 to 292 °C
19 | Cc1ccc(CN2CCN([C@@H](CNS(=O)(=O)c3ccc(OCc4cc(C)nc5ccccc45)cc3)C(=O)NO)CC2)cc1 | 170 °C

Row | Compound | melting point
20 | O=NN(CCCl)C(=O)NC1OC(CO)C(O)C1O (centres undefined) | 69 to 71 °C
21 | O=C(O)CCNC(=O)[C@H](Cc1ccccc1)OP(=O)(O)CCCCc1ccccc1 | 78.5 to 80 °C
22 | CCOC(=O)Oc1cccc(OC)c1Cl | 75 to 76 °C
23 | C=C[C@@H]1O[C@](C#CC2CC2)(C(F)(F)F)c2c(ccc(F)c2F)NC1=O (relative stereo) | 171 to 172 °C
24 | CC(C)C1Sc2c(Cl)cccc2NC1=O (centres undefined) | 158 to 159 °C
25 | O=[N+]([O-])c1ccccc1/C=C/c1ncon1 | 128 °C
26 | Cc1nc(-c2cc(Cl)ccc2Cl)n2c1nnc1cc(F)ccc12 | 186 to 190 °C
27 | CCOC(=O)C(=CNc1ccnn1CC)C(=O)OCC | 50 to 53 °C
28 | CCSc1nsc(NC(=O)N(C)C)c1C(N)=O | 147 °C
29 | O=C(NS(=O)(=O)c1ccccc1-c1ccc(Cn2c(CCCC(F)(F)F)nn(-c3ccccc3C(F)(F)F)c2=O)cc1)c1ccccc1 | 197 to 199 °C
30 | Cn1ncnc1COc1nn2c(-c3ccc(F)cc3)nncc2c1C(C)(C)C | 197 °C
31 | CN=C(O)c1c(Sc2ccc(OC)cc2)c(Sc2ccc(OC)cc2)c(Sc2ccc(OC)cc2)c(Sc2ccc(OC)cc2)c1C(=O)O | 168 to 170 °C
32 | CN1C(=O)[C@H](NC(=O)COc2ccc(Cl)cc2Cl)N=C(c2ccccc2)c2ccccc21 | 206 °C
33 | CCCn1cncc1CSc1ccc(NC(=O)C(F)(F)F)cc1 | 82 to 84 °C
34 | NC(=NO)c1cccc(Oc2ccc3c(c2)S(=O)(=O)N=C2CCCN23)c1 | 165 to 169 °C
35 | CC1(C)CCC(C)(C)c2cc(-c3cc(-c4ccc(C(=O)O)cc4)ccc3OCCCCCC(=O)O)ccc21 | 245 °C
36 | Cc1ccccc1OS(=O)(=O)c1cc(S(N)(=O)=O)c(Oc2ccccc2)cc1Cl | 157 to 159 °C
37 | O=c1[nH]c2c(CCO)c3ccccc3n2c2ccccc12 | 248 to 252 °C

Now from value to compound:

Row | melting point | Compound
38 | 157 to 161 °C | O=C(Cc1cccc([N+](=O)[O-])c1)c1c(O)c2cccnc2n(-c2ccccc2)c1=O
39 | 84.5 to 86 °C | CC(C)n1nc(C#Cc2ccccc2F)ccc1=O
40 | 128 to 132 °C | Cn1ccnc1SCOC(=O)C(C)(C)C
41 | 99 to 102 °C | OC(Cn1cncn1)(c1ccc(F)cc1F)C(F)(F)SC1CC1 (centres undefined)
42 | 98 to 102 °C | O=C(c1ccc(F)cc1)C1CCN(CC2CSc3ccc(F)cc3C2)CC1 (centres undefined)
43 | 112 to 113 °C | OCc1cc(-c2ccccc2)cs1
44 | 206 to 208 °C | CC(C)(C)c1cc(CCc2ccccc2NC(=O)NC2CCC(C(C)(C)C)CC2)cc(C(C)(C)C)c1O (centres undefined)
45 | 129 to 133 °C | CCc1nc2c(cnn2CC)c(NC2CCOCC2)c1CNC(=O)c1cccc(C(=O)NCc2ccc(F)c(-c3cccc(CN4CC5CC4CN5)c3)c2)c1 (centres undefined)
46 | 126 to 128 °C | Nc1ccccc1C(=O)NCCc1cccnc1
47 | 121 to 122 °C | COC(=O)CCc1cc(C(=O)c2cccc(C(=O)OC)n2)ccc1O
48 | 80 to 82 °C | OCc1nccc(N2CCOCC2)c1Cl
49 | 107 °C | O=C1CN(c2ccc(Cc3ccccc3)cc2)C(=S)N1Cc1ccccc1
50 | 178 °C | CCOC(=O)C1=C(C)NC(C)=C(C(=O)OC)C1c1ccccc1C#N (centres undefined)
51 | 89 to 91 °C | CCOC(=O)C(C#N)(CCCN(C)CCc1cccc(C(=O)OC)c1)c1ccc(OC)c(OC)c1 (centres undefined)
52 | 148 to 150 °C | COc1ccc2ccc(C(=O)CNC(=O)Cc3ccccc3)cc2c1
53 | 169 to 180 °C | O=S(=O)(NCC(O)(Cn1cncn1)c1ccc(Cl)cc1Cl)c1cccs1 (centres undefined)

Row | melting point | Compound
54 | 103 °C | COc1ccc(C(=O)c2ccccc2)cc1COc1ccc(Cl)cc1
55 | 207 to 210 °C | O=C(O)c1cc(-c2ccc3occc3c2)nn(Cc2ccc(F)cc2)c1=O
56 | 138 to 140 °C | CCC(C)(C)O[C@H]1COC[C@H](NC(=O)c2nccc(OC)c2O)C(=O)O[C@@H](C)[C@@H]1OCC(C)C
57 | 164 to 166 °C | COc1ccc2c(OC(C)C)c(C(N)=O)sc2c1
58 | 127 to 128 °C | CCNc1nc(C#N)c(C#N)nc1-c1cccc(Br)c1
59 | > 250 °C | COc1cc(-c2ccc(N)cc2C(=O)NCCNC(=O)c2cc(N)ccc2-c2cc(OC)c(OC)c(OC)c2)cc(OC)c1OC
60 | 203 to 204 °C | CCOCc1nc2c(N)nc3ccccc3c2n1Cc1cc(-c2ccc(F)cc2)no1
61 | 148 to 156 °C | Cc1nc(C)c(C=O)c(N)n1
62 | 242 °C | O=C(N[C@H]1CC[C@H](CCN2CCN(c3nccc4c3OCC4)CC2)CC1)c1ccc(N2CCOCC2)cc1
63 | 116 to 117 °C | Cc1oc(-c2ccccc2)nc1COc1ccc(C=O)cn1
64 | 164 to 167 °C | COc1cccc(C2C=C(C)NC3=C2C(=O)CCC3)c1 (centres undefined)
65 | 123 to 125 °C | COC(=O)c1cncc(N(C)C(=O)C(C)CSC(C)=O)c1 (centres undefined)
66 | 65 to 67 °C | CC1(C)CC(=O)c2c(O)ccc(Br)c2C1
67 | 192 to 194 °C | CCCCc1nc2ccccc2n1-c1ccc(O)cc1
68 | > 250 °C | Cc1c(-c2ccc3c(c2)C(N2Cc4ccccc4C2=O)C(O)C(C)(C)O3)c(=O)c1=O (centres undefined)
69 | 269 to 270 °C | COC(=O)c1ccc(Oc2ccc3c(c2)CCN(C2CCN(C4CCC4)CC2)C3=O)cc1
